# Starred links: 1 amine or outer side, 2 acyl side, 3 side chain; linkers in the order of their positions; H or OH if unused. Positions of bridges follow the written chain, without caps; N, C: chain ends. Non-standard residues stand in square brackets, D forms with d. Residues, ends and D or L forms follow the SMILES beside them. ξ: configuration not given here. *: point of attachment. X6 = CC(CN1CCN(C)CC1)SC=C1CN([*:1])C(C(=O)[*:2])CC1=O; X4 = CN(C)CC(CN(C)C)SCC1CN([*:1])C(C(=O)[*:2])CC1=O; X5 = CN1CCN(CCCSCC2CN([*:1])C(C(=O)[*:2])CC2=O)CC1; X2 = CN1CCC(SCC2CN([*:1])C(C(=O)[*:2])CC2=O)CC1; ξNMePhe(4-NMe2) = CNC(Cc1ccc(N(C)C)cc1)C(=O)O; X1 = CN(C)CCOC=C1CN([*:1])C(C(=O)[*:2])CC1=O; X3 = CN(C)CCNC=C1CN([*:1])C(C(=O)[*:2])CC1=O; X7 = CN(C)CCCSCC1CN([*:1])C(C(=O)[*:2])CC1=O; Picolinoyl(3-OH) = O=C(c1ncccc1O)*; NMeF = CN[CH](Cc1ccccc1)C(=O)O; Phg = N[CH](C(=O)O)c1ccccc1; Abu = CC[CH](N)C(=O)O
# Test: Solubility in water (aqueous solution obtained)
# Assay type: physicochemical
# Settings: hydrochloride / dissolved with aqueous hydrochloric acid and distilled water
# Text: In the examples described below, unless stated otherwise, all the products can be dissolved at a strength of at least 2%, in the form of hydrochloride.
row,Compound,"Solubility: concentration of aqueous solution, in the form of hydrochloride [%]"
1,5γ-Deoxy-5γ-(2-dimethylaminoethyl)aminopristinamycin IA [compound 2],10
2,5γ-deoxy-5γ-(4-diethylamino-2-methylbutyl)aminopristinamycin IA [product F],10
3,5γ-deoxy-5γ-[N-(2-dimethylaminoethyl)-N-methylamino]pristinamy cin IA [product D],10
4,5γ-deoxy-5γ-[N-(2-dimethylaminoethyl)acetamido]pristinamycin IA [product L],10
5,5γ-deoxy-5γ-[N-(3-dimethylaminopropyl)acetamido]pristinamycin IA [product M],10
6,5γ-deoxy-5γ-dimethylaminopristinamycin IA [product B],2
7,5γ-deoxy-5γ-methylaminopristinamycin IA [Reference Example 9],1
8,5γ-deoxy-(3-dimethylaminopropyl)-5γ-amino-pristinamycin IA [product A],10
9,5δ-(1-methyl-4-piperidyl)aminomethylenepristinamycin IA [product AT],10
10,5δ-(2-diethylaminoethyl)thiomethylpristinamycin IA [product AF1],5
11,5δ-(2-dimethylaminoethyl)thiomethylenepristinamycin IA [product AX],1
12,5δ-(3-dimethylamino-2-propyl)thiomethylenepristinamycin IA [Reference Example 57],5
13,5δ-(3-dimethylaminopropyl)thiomethylpristinamycin IA [product AA],10
14,5δ-(5-diethylamino-2-pentyl)thiomethylenepristinamycin IA [Reference Example 58],10
15,5δ-[2-(4-methyl-1-piperazinyl)ethyl]thiomethylpristinamycin IA [product AC],5
16,26-(2-Diisopropylaminoethyl)sulphonylpristinamycin IIB [Example 25],5
17,"CC1=CC(O)CC(=O)Cc2nc(co2)C(=O)N2CCC([S+]([O-])CCN(C)C)C2C(=O)OC(C(C)C)C(C)C=CC(=O)NCC=C1 (centres unmarked) [Example 4, 26-(2-dimethylaminoethyl)sulphinylpristinamycin IIB]",3.7
18,"CCN(C)CC[S+]([O-])C1CCN2C(=O)c3coc(n3)CC(=O)CC(O)C=C(C)C=CCNC(=O)C=CC(C)C(C(C)C)OC(=O)C12 (centres unmarked) [Example 5, 2-(N-methyl-N-ethyl-2-aminoethyl)sulphinylpristinamycin IIB]",10
19,"CC1=CC(O)CC(=O)Cc2nc(co2)C(=O)N2CCC([S+]([O-])CCCN(C)C)C2C(=O)OC(C(C)C)C(C)C=CC(=O)NCC=C1 (centres unmarked) [Example 6, 26-(3-dimethylaminopropyl)sulphinylpristinamycin IIB]",2
20,"CC1=CC(O)CC(=O)Cc2nc(co2)C(=O)N2CCC([S+]([O-])CC(Cc3ccccc3)N(C)C)C2C(=O)OC(C(C)C)C(C)C=CC(=O)NCC=C1 [Example 11, 26-[(2S)-2-dimethylamino-3-phenylpropyl]sulphinylpristinamycin IIB]",1
21,"CCCCCCCCCCNCC[S+]([O-])C1CCN2C(=O)c3coc(n3)CC(=O)CC(O)C=C(C)C=CCNC(=O)C=CC(C)C(C(C)C)OC(=O)C12 (centres unmarked) [Example 18, 26-(2-decylaminoethyl)sulphinylpristinamycin IIB]",1
22,"CCC1NC(=O)C(NC(=O)c2ncccc2O)C(C)OC(=O)C(c2ccccc2)NC(=O)C2CC(=O)C(=CSC(C)CN3CCN(C)CC3)CN2C(=O)C(Cc2ccc(N(C)C)cc2)N(C)C(=O)C2CCCN2C1=O (centres unmarked) [product AAN, 5δ-[3-(4-methyl-1-piperazinyl)-2-propyl]thiomethylenepristinamycin IA] ({Picolinoyl(3-OH)}-T[Abu]P[ξNMePhe(4-NMe2)][X6][Phg]; ester 1-C; configuration not given here)",10
23,"CCC1NC(=O)C(NC(=O)c2ncccc2O)C(C)OC(=O)C(c2ccccc2)NC(=O)C2CC(=O)C(=COCCN(C)C)CN2C(=O)C(Cc2ccc(N(C)C)cc2)N(C)C(=O)C2CCCN2C1=O (centres unmarked) [product AAQ, 5δ-(2-dimethylaminoethoxymethylene)pristinamycin IA] ({Picolinoyl(3-OH)}-T[Abu]P[ξNMePhe(4-NMe2)][X1][Phg]; ester 1-C; configuration not given here)",1
24,"CCC1NC(=O)C(NC(=O)c2ncccc2O)C(C)OC(=O)C(c2ccccc2)NC(=O)C2CC(=O)C(CSCCCN(C)C)CN2C(=O)C(Cc2ccccc2)N(C)C(=O)C2CCCN2C1=O (centres unmarked) [product AB, 5δ-(3-dimethylaminopropyl)thiomethylvirginiamycin S] ({Picolinoyl(3-OH)}-T[Abu]P[NMeF][X7][Phg]; ester 1-C; configuration not given here)",10
25,"CCC1NC(=O)C(NC(=O)c2ncccc2O)C(C)OC(=O)C(c2ccccc2)NC(=O)C2CC(=O)C(CSCCCN3CCN(C)CC3)CN2C(=O)C(Cc2ccc(N(C)C)cc2)N(C)C(=O)C2CCCN2C1=O (centres unmarked) [product AD, 5δ-[3-(4-methyl-1-piperazinyl)propyl]thiomethylpristinamycin IA] ({Picolinoyl(3-OH)}-T[Abu]P[ξNMePhe(4-NMe2)][X5][Phg]; ester 1-C; configuration not given here)",10
26,"CCC1NC(=O)C(NC(=O)c2ncccc2O)C(C)OC(=O)C(c2ccccc2)NC(=O)C2CC(=O)C(CSC(CN(C)C)CN(C)C)CN2C(=O)C(Cc2ccc(N(C)C)cc2)N(C)C(=O)C2CCCN2C1=O (centres unmarked) [product AE, 5δ-[1,3-bis(dimethylamino)-2-propyl]thiomethylpristinamycin IA] ({Picolinoyl(3-OH)}-T[Abu]P[ξNMePhe(4-NMe2)][X4][Phg]; ester 1-C; configuration not given here)",7.5
27,"CCC1NC(=O)C(NC(=O)c2ncccc2O)C(C)OC(=O)C(c2ccccc2)NC(=O)C2CC(=O)C(CSC3CCN(C)CC3)CN2C(=O)C(Cc2ccc(N(C)C)cc2)N(C)C(=O)C2CCCN2C1=O (centres unmarked) [product AF, 5δ-(1-methyl-4-piperidyl)thiomethylpristinamycin IA] ({Picolinoyl(3-OH)}-T[Abu]P[ξNMePhe(4-NMe2)][X2][Phg]; ester 1-C; configuration not given here)",5

# Test: Solubility in water (aqueous solution obtained)
# Assay type: physicochemical
# Settings: distilled water, no hydrochloride stated
row,Compound,Solubility: concentration of aqueous solution [%]
1,5γ-[N-(carboxymethyl)methylamino]-5γ-deoxypristinamycin IA [product K],2
2,"CCC1NC(=O)C(NC(=O)c2ncccc2O)C(C)OC(=O)C(c2ccccc2)NC(=O)C2CC(=O)C(=CNCCN(C)C)CN2C(=O)C(Cc2ccc(N(C)C)cc2)N(C)C(=O)C2CCCN2C1=O (centres unmarked) [product AG, 5δ-(2-dimethylaminoethyl)aminomethylenepristinamycin IA] ({Picolinoyl(3-OH)}-T[Abu]P[ξNMePhe(4-NMe2)][X3][Phg]; ester 1-C; configuration not given here)",1
